Read-outs that look alike come from different tables or passages of the source.
Test system: SNU-C4 HiBiT-PXR KI cells
Test: Cytotoxicity, CellTiter-Glo Luminescent Cell Viability Assay
Format: cell-based
Experimental: An Echo 655T Acoustic Liquid Handler was used to dispense 75 nL/well of DMSO or PROTAC dilution into white tissue culture-treated 384-well plates. For 24 h cytotoxicity, 25 μL assay media containing 1×10^4 cells was added to each well to match the conditions for the degradation assays. For 72 h cytotoxicity, 25 μL RPMI with 10% FBS containing 2.5×10^3 cells was added to each well to match normal growth conditions. […] After 24 h or 72 h, the CellTiter-Glo Luminescent Cell Viability Assay (Promega, cat. #G7572) and an EnVision microplate reader were used to assess cytotoxicity. DMSO wells with cells served as positive controls, and wells without cells served as negative controls. The percent cell viability for each well was calculated using equation 5,

[1] = read-out: 24 h CC50, Table 4, 24 h treatment
[2] = read-out: 72 h CC50, Table 4, 72 h treatment

SMILES	CC50 (read-out: 24 h CC50, Table 3, 24 h treatment) [µM]	CC50 (read-out: 72 h CC50, Table 3, 72 h treatment) [µM]	CC50 [1] [µM]	CC50 [2] [µM]
COc1cc(OCCCCCCOCCOCCOCCOCCOCCOCC(=O)N[C@H](C(=O)N2C[C@H](O)C[C@H]2C(=O)NCc2ccc(-c3scnc3C)cc2)C(C)(C)C)c(C)cc1-n1nnc(S(=O)(=O)c2ccc(C(C)(C)C)cc2)c1C [Compound 34, (2S,4R)-1-((S)-2-(tert-Butyl)-27-(4-(4-((4-(tert-butyl)phenyl)sulfonyl)-5-methyl-1H-1,2,3-triazol-1-yl)-5-methoxy-2-methylphenoxy)-4-oxo-6,9,12,15,18,21-hexaoxa-3-azaheptacosanoyl)-4-hydroxy-N-(4-(4-methylthiazol-5-yl)benzyl)pyrrolidine-2-carboxamide]	> 30	> 30		
CCCCOc1ccc(C(C)(C)C)cc1NC(=O)c1nnn(-c2cc(C)c(OCCCCCCOCCOCC(=O)N[C@H](C(=O)N3C[C@H](O)C[C@H]3C(=O)NCc3ccc(-c4scnc4C)cc3)C(C)(C)C)cc2OC)c1C [Compound 35, N-(2-Butoxy-5-(tert-butyl)phenyl)-1-(4-((6-(2-(2-(((S)-1-((2S,4R)-4-hydroxy-2-((4-(4-methylthiazol-5-yl)benzyl)carbamoyl)pyrrolidin-1-yl)-3,3-dimethyl-1-oxobutan-2-yl)amino)-2-oxoethoxy)ethoxy)hexyl)oxy)-2-methoxy-5-methylphenyl)-5-methyl-1H-1,2,3-triazole-4-carboxamide]			> 30	> 30
CCC[C@H](CC)Oc1ccc(C(C)(C)C)cc1NC(=O)c1nnn(-c2cc(C)c(OCCCCCCOCCOCC(=O)N[C@H](C(=O)N3C[C@H](O)C[C@H]3C(=O)NCc3ccc(-c4scnc4C)cc3)C(C)(C)C)cc2OC)c1C [Compound 36]			> 30	> 30
CCC[C@H](CC)Oc1ccc(C(C)(C)C)cc1NC(=O)c1nnn(-c2cc(OC)c(OCCCCCCOCCOCC(=O)N[C@H](C(=O)N3C[C@H](O)C[C@H]3C(=O)NCc3ccc(-c4scnc4C)cc3)C(C)(C)C)cc2OC)c1C [Compound 37, N-(5-(TERT-BUTYL)-2-(((S)-HEXAN-3-YL)OXY)PHENYL)-1-(4-((6-(2-(2-(((S)-1-((2S,4R)-4-HYDROXY-2-((4-(4 METHYLTHIAZOL-5-YL)BENZYL)CARBAMOYL)PYRROLIDIN-1-YL)-3,3-DIMETHYL-1-OXOBUTAN-2-YL)AMINO)-2 OXOETHOXY)ETHOXY)HEXYL)OXY)-2,5-DIMETHOXYPHENYL)-5-METHYL-1H-1,2,3-TRIAZOLE-4-CARBOXAMIDE]			> 30	> 30
CCC[C@H](CC)Oc1ccc(C(=O)OC)cc1NC(=O)c1nnn(-c2cc(OC)c(OCCCCCCOCCOCC(=O)N[C@H](C(=O)N3C[C@H](O)C[C@H]3C(=O)NCc3ccc(-c4scnc4C)cc3)C(C)(C)C)cc2OC)c1C [Compound 38, METHYL 4-(((S)-HEXAN-3-YL)OXY)-3-(1-(4-((6-(2-(2-(((S)-1-((2S,4R)-4-HYDROXY-2-((4-(4-METHYLTHIAZOL-5-YL)BENZYL)CARBAMOYL)PYRROLIDIN-1-YL)-3,3-DIMETHYL-1-OXOBUTAN-2-YL)AMINO)-2-OXOETHOXY)ETHOXY)HEXYL)OXY)-2,5-DIMETHOXYPHENYL)-5-METHYL-1H-1,2,3-TRIAZOLE-4-CARBOXAMIDO)BENZOATE]			> 30	> 30

— patent US12516051B1, “Small molecule degraders and fluorescent probes of PXR” (St. Jude Children's Research Hospital, Inc., priority 2024, dated 2026)
